We go through eleven compounds from DBAASP.

Molecules are shown by their SMILES. In brackets after ≈: the same amount, converted by molar mass.

Some test systems named below: Escherichia coli K88; Escherichia coli K99; Escherichia coli UB1005; Escherichia coli 078; Staphylococcus xylosus.
Experiment in all cases: ≥ marks a high value that may be exact or a test limit, other limits are often not marked, values filed in µg/mL are converted to µM
Experiment [1] concerns Staphylococcus aureus ATCC 25923.
The subject of experiment [2] is Staphylococcus aureus ATCC 43300.
Experiment [3] deals with Candida parapsilosis CGMCC 2.3989.
For experiment [4], the system named is Salmonella enterica subsp. enterica serovar Pullorum ATCC 7913.
The test system of experiment [5] is Candida tropicalis CGMCC 2.1975.
Experiment [6] concerns Pseudomonas aeruginosa ATCC 27853.
For experiment [7], the system named is Staphylococcus epidermidis ATCC 12228.
For experiment [8], the system named is Salmonella enterica subsp. enterica serovar Typhimurium ATCC 14028.
For experiment [9], the system named is Salmonella enterica subsp. enterica serovar Typhimurium C77-31.
The subject of experiment [10] is Bordetella bronchiseptica CUN 11844-99.
Experiment [11] concerns Escherichia coli ATCC 25922.
The test system of experiment [12] is Franconibacter helveticus DSM 18390.
Experiment [13] concerns Escherichia coli DSM 1116.
The subject of experiment [14] is Bacillus subtilis DSM 347.
Experiment [15] concerns Staphylococcus xylosus DSM 20287.
The test system of experiment [16] is Escherichia coli DH5alpha.

Take `CC[C@H](C)[C@H](NC(=O)[C@H](CCCN=C(N)N)NC(=O)[C@H](C)NC(=O)[C@H](C)N)C(=O)N[C@H](C(=O)N[C@@H](CC(C)C)C(=O)N[C@@H](CCCN=C(N)N)C(=O)N[C@@H](C)C(=O)N[C@@H](CCCN=C(N)N)C(=O)N[C@@H](Cc1ccccc1)C(=O)N[C@@H](CCCN=C(N)N)C(N)=O)[C@@H](C)CC` [AARIILRARFR]: the MIC is 4 µM (≈ 5.37 µg/mL) in [1]; 2 µM (≈ 2.68 µg/mL) in the experiment with Escherichia coli K88; 2 µM (≈ 2.68 µg/mL) in experiment [2]; 16 µM (≈ 21.5 µg/mL) in experiment [3]; 4 µM (≈ 5.37 µg/mL) in experiment [4]; 4 µM (≈ 5.37 µg/mL) in experiment [5]. The MIC in experiment [6] is 16 µM (≈ 21.5 µg/mL); in the experiment with Escherichia coli K99, 2 µM (≈ 2.68 µg/mL); in experiment [7], 2 µM (≈ 2.68 µg/mL); against Escherichia coli UB1005, 2 µM (≈ 2.68 µg/mL); in [8], 4 µM (≈ 5.37 µg/mL); in the experiment with Escherichia coli 078, 4 µM (≈ 5.37 µg/mL). The MIC in experiment [9] is 4 µM (≈ 5.37 µg/mL).

In the case of `CC[C@H](C)[C@H](NC(=O)[C@H](CCCN=C(N)N)NC(=O)[C@H](CC(C)C)NC(=O)[C@@H](NC(=O)[C@@H](NC(=O)[C@H](CCCN=C(N)N)NC(=O)[C@H](C)NC(=O)[C@H](C)N)[C@@H](C)CC)[C@@H](C)CC)C(=O)N[C@@H](CCCN=C(N)N)C(=O)N[C@@H](Cc1ccccc1)C(=O)N[C@@H](CCCN=C(N)N)C(N)=O` [AARIILRIRFR], the MIC is 2 µM (≈ 2.77 µg/mL) in experiment [1]; 2 µM (≈ 2.77 µg/mL) in the experiment on Escherichia coli K88; 2 µM (≈ 2.77 µg/mL) in experiment [2]; 4 µM (≈ 5.54 µg/mL) in [3]; 2 µM (≈ 2.77 µg/mL) in [4]; 4 µM (≈ 5.54 µg/mL) in experiment [5]. The minimum inhibitory concentration (MIC) is 16 µM (≈ 22.1 µg/mL) in experiment [6]; 4 µM (≈ 5.54 µg/mL) in the experiment with Escherichia coli K99; 2 µM (≈ 2.77 µg/mL) in [7]; 4 µM (≈ 5.54 µg/mL) against Escherichia coli UB1005; 2 µM (≈ 2.77 µg/mL) in experiment [8]; 2 µM (≈ 2.77 µg/mL) in the experiment on Escherichia coli 078. The compound further returned a minimum inhibitory concentration (MIC) in experiment [9] of 4 µM (≈ 5.54 µg/mL).

Turning to `NCCCC[C@H](NC(=O)[C@H](Cc1ccc(O)cc1)NC(=O)[C@H](CCCN=C(N)N)NC(=O)[C@H](CCCN=C(N)N)NC(=O)CN)C(=O)N[C@@H](CCCCN)C(=O)N[C@@H](Cc1ccccc1)C(=O)N[C@@H](CCCCN)C(=O)N[C@@H](Cc1c[nH]c2ccccc12)C(=O)N[C@@H](CCCN=C(N)N)C(=O)N[C@@H](Cc1ccccc1)C(=O)N[C@@H](CCCN=C(N)N)C(=O)NCC(=O)N[C@@H](CCCN=C(N)N)C(=O)N[C@@H](Cc1ccccc1)C(=O)N[C@@H](Cc1c[nH]c2ccccc12)C(=O)N[C@@H](Cc1ccccc1)C(=O)N[C@@H](Cc1c[nH]c2ccccc12)C(=O)NCC(N)=O` [GRRYKKFKWRFRGRFWFWG], the figures for the MIC in experiment [1], in experiment [10] and in experiment [11] were 12 µM (≈ 32 µg/mL), 6 µM (≈ 16 µg/mL) and 24 µM (≈ 64 µg/mL), respectively.

Turning to `CC[C@H](C)[C@H](N)C(=O)N[C@@H](C)C(=O)NCC(=O)N[C@@H](CCCCN)C(=O)N[C@H](C(=O)N[C@@H](C)C(=O)N[C@@H](CCCCN)C(=O)N[C@H](C(=O)N[C@@H](C)C(=O)NCC(=O)N[C@@H](CCCCN)C(=O)N[C@H](C(=O)N[C@@H](C)C(=O)N[C@@H](CCCCN)C(=O)N[C@H](C(=O)N[C@@H](C)C(=O)NCC(=O)N[C@@H](CCCCN)C(=O)N[C@H](C(=O)N[C@@H](C)C(=O)N[C@@H](CCCCN)C(N)=O)[C@@H](C)CC)[C@@H](C)CC)[C@@H](C)CC)[C@@H](C)CC)[C@@H](C)CC` [IAGKIAKIAGKIAKIAGKIAK], the MIC in experiment [12] came to 1.37 µM (≈ 2.83 µg/mL); in experiment [13], 1.94 µM (≈ 4 µg/mL); in [14] it was 1.37 µM (≈ 2.83 µg/mL); in [15], 1.37 µM (≈ 2.83 µg/mL).

For `CC[C@H](C)[C@H](N)C(=O)N[C@@H](C)C(=O)N[C@@H](CCCCN)C(=O)N[C@H](C(=O)N[C@@H](C)C(=O)NCC(=O)N[C@@H](CCCCN)C(=O)N[C@H](C(=O)N[C@@H](C)C(=O)N[C@@H](CCCCN)C(=O)N[C@H](C(=O)N[C@@H](C)C(=O)NCC(=O)N[C@@H](CCCCN)C(=O)N[C@H](C(=O)N[C@@H](C)C(=O)N[C@@H](CCCCN)C(N)=O)[C@@H](C)CC)[C@@H](C)CC)[C@@H](C)CC)[C@@H](C)CC` [IAKIAGKIAKIAGKIAK], the minimal inhibitory concentration (MIC) in experiment [12] is at least 53.4 µM; in experiment [13] it was at least 75.6 µM; in experiment [14], 9.44 µM (≈ 16 µg/mL); in experiment [15] it was at least 75.6 µM.

For `CC[C@H](C)[C@H](NC(=O)[C@H](CCCCN)NC(=O)CNC(=O)[C@H](C)NC(=O)[C@@H](NC(=O)[C@H](CCCCN)NC(=O)[C@H](C)NC(=O)[C@@H](NC(=O)[C@H](CCCCN)NC(=O)CNC(=O)[C@H](C)NC(=O)[C@@H](NC(=O)[C@H](CCCCN)NC(=O)[C@H](C)NC(=O)[C@@H](NC(=O)[C@H](CCCCN)NC(=O)CNC(=O)[C@H](C)NC(=O)[C@@H](NC(=O)[C@H](CCCCN)NC(=O)[C@H](C)NC(=O)[C@@H](NC(=O)[C@@H](N)CCCCN)[C@@H](C)CC)[C@@H](C)CC)[C@@H](C)CC)[C@@H](C)CC)[C@@H](C)CC)[C@@H](C)CC)C(=O)N[C@@H](C)C(N)=O` [KIAKIAGKIAKIAGKIAKIAGKIA], the minimal inhibitory concentration (MIC) in [12], in experiment [13], in experiment [14] and in experiment [15] was 0.842 µM (≈ 2 µg/mL) throughout.

For `CC[C@H](C)[C@H](NC(=O)[C@H](CCCCN)NC(=O)CNC(=O)[C@H](C)NC(=O)[C@@H](NC(=O)[C@H](CCCCN)NC(=O)[C@H](C)NC(=O)[C@@H](NC(=O)[C@H](CCCCN)NC(=O)CNC(=O)[C@H](C)NC(=O)[C@@H](NC(=O)[C@H](CCCCN)NC(=O)[C@H](C)NC(=O)[C@@H](NC(=O)[C@@H](N)CCCCN)[C@@H](C)CC)[C@@H](C)CC)[C@@H](C)CC)[C@@H](C)CC)C(=O)N[C@@H](C)C(N)=O` [KIAKIAGKIAKIAGKIA], the MIC in experiment [12] was 9.44 µM (≈ 16 µg/mL); in experiment [13], 6.68 µM (≈ 11.3 µg/mL); in [14] it was 6.68 µM (≈ 11.3 µg/mL); in experiment [15] it was at least 37.8 µM.

On to `NCCCC[C@H](NC(=O)[C@H](CCCCN)NC(=O)[C@H](CCCCN)NC(=O)[C@H](Cc1ccccc1)NC(=O)[C@H](Cc1ccccc1)NC(=O)[C@H](Cc1ccccc1)NC(=O)[C@H](Cc1ccccc1)NC(=O)[C@H](Cc1ccccc1)NC(=O)[C@H](CCCCN)NC(=O)[C@H](CCCCN)NC(=O)[C@@H](N)CCCCN)C(=O)O` [KKKFFFFFKKK], for which the minimum inhibitory concentration (MIC) in the experiment on Staphylococcus xylosus was determined as 4 µM (≈ 6.09 µg/mL); in experiment [16], 16 µM (≈ 24.4 µg/mL).

Take `CC[C@H](C)[C@H](NC(=O)[C@H](CCCCN)NC(=O)[C@H](CCCN=C(N)N)NC(=O)[C@@H](N)CCCCN)C(=O)N[C@@H](CCCCN)C(=O)N[C@@H](CCCN=C(N)N)C(=O)N[C@@H](CCCCN)C(=O)O` [KRKIKRK]: the MIC (with Staphylococcus xylosus; in [16]) was at least 64 µM each time.

For `CC[C@H](C)[C@H](NC(=O)[C@H](CC(C)C)NC(=O)[C@H](CCCCN)NC(=O)[C@H](CCCN=C(N)N)NC(=O)[C@@H](N)CCCCN)C(=O)N[C@@H](CC(C)C)C(=O)N[C@@H](CCCCN)C(=O)N[C@@H](CCCN=C(N)N)C(=O)N[C@H](C(=O)N[C@@H](CC(C)C)C(=O)N[C@H](C(=O)N[C@@H](CCCCN)C(=O)N[C@@H](CCCN=C(N)N)C(=O)N[C@@H](CCCCN)C(=O)O)[C@@H](C)CC)[C@@H](C)CC` [KRKLILKRILIKRK], the results for the MIC (against Staphylococcus xylosus; in experiment [16]) were 8 µM (≈ 14.5 µg/mL) and 16 µM (≈ 28.9 µg/mL), respectively.

In the case of `CC(C)C[C@H](NC(=O)[C@H](CC(C)C)NC(=O)[C@H](CC(C)C)NC(=O)[C@H](CC(C)C)NC(=O)[C@H](CC(C)C)NC(=O)[C@H](CCCN=C(N)N)NC(=O)[C@H](CCCN=C(N)N)NC(=O)[C@@H](N)CCCN=C(N)N)C(=O)N[C@@H](CCCN=C(N)N)C(=O)N[C@@H](CCCN=C(N)N)C(=O)N[C@@H](CCCN=C(N)N)C(=O)O` [RRRLLLLLRRR], the MIC against Staphylococcus xylosus was 1 µM (≈ 1.52 µg/mL); in experiment [16], 8 µM (≈ 12.2 µg/mL).

For orientation: MIC means the smallest concentration in the dilution series that meets the test's criterion for growth inhibition. High values mean a less susceptible organism, low ones a more susceptible organism.
